Reference: article PMC4757794 (2016)

Assays:
[1] = test system: matched DNA (melting temperature experiment) (DNA, duplex) ATCGTCTCGGTATAA/TTATACCGAGACGAT; assay: UV melting at 260 nm; conditions: compound equimolar to DNA
[2] = test system: CC mismatched DNA (melting temperature experiment) (DNA, mismatch bulge abasic) ATCGTCTCGGTATAA/TTATACCCAGACGAT; assay: UV melting at 260 nm; conditions: compound equimolar to DNA

## C1CCC(P(CP(C2CCCCC2)C2CCCCC2)C2CCCCC2)CC1.[Pt+2].[Pt+2].[c-]1ccccc1-c1cccc(-c2ccccn2)n1.[c-]1ccccc1-c1cccc(-c2ccccn2)n1
[1]
  ΔTm: 0.5 °C
[2]
  ΔTm: 6.8 °C
